# Source: patent publication US12503451B2, “2-arylthiazole derivative or salt thereof, preparation method therefor, and pharmaceutical composition comprising same” (HEXAPHARMATEC CO., LTD., priority 2020, dated 2025)
# Structures can show the parent of a compound that is named as a salt. Where two headings read alike, the source gives them in different places.
# Columns and labels:
# [1] = test system: primary mouse cortical neuron cells; assay: Inhibitory activity against neuronal apoptosis by beta amyloid (CCK-8), neuron cells; type: cell-based; conditions: Cortical neurone, read-out: Cell viability (%) (Neuron cells)
# Protocol: (§1) The inhibitory activities of the compounds of the present invention against neuronal apoptosis by beta amyloid, known as the major cytotoxic substance in neurodegenerative diseases, were analyzed in N2a cells (ATCC, CCL-131, mouse neuroblastoma cell line) and neuron cells (primary mouse cortical neuron cells) isolated in the same manners as in Test Example 2. The media used in Test Example 3 and Test Example 2 were used as a medium for the N2a cells and as a medium for the neuron cells, respectively. Specifically, N2a cells (3×10^4 cells) and neuron cells (8×10^4 cells), along with the respective media, were added to each well of a 96-well plate and then incubated overnight at 37° C. in a CO2 incubator. The cells were treated with the compound of Example 10 and the compound of Example 29 at the concentrations of 5 μM and 500 nM, respectively, treated with 20 μM of beta amyloid after 30 minutes therefrom, and then incubated at 37° C. in a CO2 incubator for 72 hours. The cells were treated with 10 μL of CCK-8 reagent (Enzo Life Science, ALX-850-039-KI02) and then incubated at 37° C. in a CO2 incubator for 2 hours. Three wells were tested for each group and each absorbance was measured at 450 nm. The absorbance value of the untreated control group was set to 100% cell viability. The cell viability of each group was calculated from the respective absorbance values.
# N2a cells [2] = assay: Inhibitory activity against neuronal apoptosis by beta amyloid (CCK-8), N2a cells; type: cell-based, mouse; conditions: for viability at 5 µM: Mus musculus, N2a, read-out: Cell viability (%) (N2a cells); for Inhibition of cytotoxicity caused by beta amyloid treatment (in words): Table 9: N2a cells 5 μM and neuron cells 500 nM
# Protocol: as §1
# [3] = test system: primary mouse cortical neuron cells; assay: Autophagic vesicle formation (CYTO-ID Autophagy Detection Kit); type: cell-based; conditions: for Cyto-ID fluorescence value (relative intensity): 5 μM, 24 hours, untreated control = 1; for Autophagic vesicle formation compared to rapamycin (in words): at ½ concentration of rapamycin (5 μM vs 10 μM)
# Protocol: Autophagy lysosomal pathway (ALP) activation by the compounds of the present invention was verified, through measuring the degree of autophagic vesicle formation in neuron cells with the CYTO-ID™ Autophagy Detection Kit (ENZ-51031-K200, Enzo Life Sciences, Inc.). Neuron cells (i.e., primary mouse cortical neuron cells) were isolated from mice using an enzymatic digest method. Specifically, primary mouse cortical neuron cells were isolated by incubating the cortice tissues derived from 16 day embryonic C57BL6 mice, at 37° C. for 30 minutes, with 20 U/ml papain (Worthington Biochemical Corporation, LK003176) and 0.005% DNase I (Worthington Biochemical Corporation, LK003170).
# The primary mouse cortical neuron cells (8×10^4 cells) and a medium (a neural cell culture media containing 2 mM L-glutamine (Gibco, 25030-081), N2 supplement (Gibco, 17502-048), B27 supplement (Gibco, 17504-044), and 50 μg/ml penicillin-streptomycin (Gibco, 15140-122)) were added to each well of a 96-well plate and then incubated overnight at 37° C. in a CO2 incubator. The compound of Example 10 (5 μM), the compound of Example 29 (5 μM), and rapamycin (10 μM) were respectively treated to the cells, which were incubated at 37° C. in a CO2 incubator for 24 hours. After each well was washed with 1×Assay Buffer (Enzo Life Science, ENZ-51031-K200), 0.2 μl of Cyto-ID autophagy dye and 0.1 μl of Hoechst 33342 were treated to the cells, which were incubated at 37° C. in a CO2 incubator for 30 minutes. After each well was washed with 1×Assay Buffer (Enzo Life Science, ENZ-51031-K200), the fluorescence values of Cyto-ID (EX: 480 nm, EM: 530 nm) and Hoechst 33342 (EX: 340 nm, EM: 480 nm) were respectively measured with a fluorometer. Three wells were tested for each group. After normalization was carried out through dividing the Cyto-ID fluorescence value of each well by Hoechst 33342 fluorescence value, each relative intensity was calculated by setting that of the untreated control to 1.
# N2a cells [4] = assay: Inhibitory activities against mitochondrial damage by rotenone (XF Cell Mito Stress Test); type: cell-based, mouse; conditions: 5 μM + 10 μM rotenone
# Protocol: The inhibitory activities of the compounds of the present invention against mitochondrial damage by rotenone, known as the major cytotoxic substance in neurodegenerative diseases, were analyzed in N2a cells (ATCC, CCL-131, mouse neuroblastoma cell line). Specifically, N2a cells (3×10^4 cells) and a medium (DMEM (Dulbecco's modified Eagle's medium, Gibco, 11995-065) supplemented with 5% heat-inactivated fetal bovine serum (FBS; Gibco, 16000-044) and 50 μg/ml penicillin-streptomycin (Gibco, 15140-122) were added to each well of a XF24-well culture plate and then incubated overnight at 37° C. in a CO2 incubator. The cells were treated with the compound of Example 10 (5 μM), treated with 10 μM of rotenone after 30 minutes therefrom, and then incubated at 37° C. in a CO2 incubator for 24 hours. After the treatment with a XF Cell Mito Stress Test Kit (Seahorse Bioscience, 103015-100) according to the manufacturer's instructions, the level of mitochondrial respiration was measured, using an XF24 Extracellular Flux Analyzer (Seahorse Bioscience). Four wells were tested for each group; and the basal respiration, the ATP production, the maximal respiration, and the spare respiratory capacity were measured. The levels of each mitochondrial respiration were normalized by the protein quantification value. The basal respiration of the untreated control group was set to 100% and the remaining values are shown. In Table 10, the control group represents a group treated with only 10 μM of rotenone.
# [5] = test system: dimethylnitrosamine (DMN)-induced liver injury male SD rats; assay: Liver function-improving activities by oral administration in the liver injury model (2); type: in vivo, rat
# Protocol: Specifically, 7-week-old male SD rats (Orient Bio, Korea) were accommodated to the laboratory environment at room temperature for 7 days. General symptoms were observed and then only healthy animals were used for the experiment. The rats were divided into 5 groups (n=10 for each group), i.e., the normal control group, the group to which only DMN is administered, and the group to which both the compound of the present invention (the compound of Example 23, 26, or 29) and DMN are administered. DMN was dissolved in purified water and then administered intraperitoneally at the dose of 10 mg/kg for 3 consecutive days per week (3 times per week, for 4 weeks). Blood samples were collected after the completion of the fourth-week liver injury inducement and then the serum ALT (Alanine Transaminase) values and the serum AST (Aspartate Transaminase) values were measured so as to confirm the liver injury thereof. […] Blood samples were collected on Day 0 (1 day after the completion of the fourth-week liver injury inducement) and Day 7, 14, 21 and 28 after the administration of the test materials. The collected blood was injected into a vacutainer tube containing a clot activator and then allowed to stand at room temperature for about 20 minutes so as to coagulate each blood sample. After centrifugation for 10 minutes, the resulting serums were subjected to blood-biochemical tests. In addition, at 24 hours after the last administration, an autopsy for hepatectomy and fixation was performed to prepare the tissue specimens thereof. After preparing the slides with the tissue specimens, hematoxylin and eosin (H&E) staining was performed thereon for microscopic observation of damages to liver tissue and inflammatory cell infiltrations in liver tissues. In addition, Masson's trichrome staining was also performed thereon for microscopic observation of collagen fiber depositions in liver tissues. The results obtained from the measurements were subject to group comparison, through parametric multiple comparisons or non-parametric multiple comparisons, with SPSS. When P<0.05, it was determined to be statistically significant. […] Therefore, it can be confirmed that the compounds of the present invention have excellent treating activity against liver fibrosis. […] From the results of FIG. 4, the degrees of damage to liver tissue and inflammatory cell infiltration in liver tissues were measured. And also, from the results of FIG. 4, the degree of collagen fiber deposition in liver tissues was measured.
# N2a cells [6] = assay: Autophagy flux by electron microscope imaging; type: cell-based, mouse
# Protocol: N2a cells (ATCC, CCL-131, mouse neuroblastoma cell line) (3×10^4 cells) and a medium (DMEM (Dulbecco's modified Eagle's medium, Gibco, 11995-065) supplemented with 5% heat-inactivated fetal bovine serum, FBS; Gibco, 16000-044) and 50 μg/ml penicillin-streptomycin (Gibco, 15140-122) were added to each well of a 6-well plate and incubated overnight at 37° C. in a CO2 incubator. The compound of Example 29 (5 μM) and rapamycin (10 μM) were respectively treated and then incubated at 37° C. in a CO2 incubator for 24 hours. Three wells per each group were subject to electron microscope block formation and then pre-fixation, post-fixation, dehydration, substitution, and embedding were carried out according to a flat-embedding method. After ultra-thin sections having a thickness of 70 nm were prepared, heavy metal staining (uranyl acetate, lead citrate) was carried out on the each section, which was photographed through a mosaic imaging technique for imaging the entire cells. In addition, the results obtained by measuring the numbers of the total autophagies (autophagic vesicles), autophagosomes, and autolysosomes per cell according to the treatment groups are shown in Table 3 below. In Table 3 below, the control means the untreated control.
# [7] = 24 hours, basal respiration of untreated control = 100%
# [8] = 0 week (Day 0, after 4 weeks DMN, before administration)
# [9] = 1 week, 25 mg/kg oral once a day after 4 weeks DMN
# [10] = 2 weeks, 25 mg/kg oral once a day after 4 weeks DMN
# [11] = 3 weeks, 25 mg/kg oral once a day after 4 weeks DMN
# [12] = 4 weeks, 25 mg/kg oral once a day after 4 weeks DMN
smiles,measurement,setting,value
"Cc1nc(-c2ccc(OCC(C)C)c(C#N)c2)sc1C(=O)NCC1(N(C)C)CCOCC1 [Example 10, N-((4-(dimethylamino)tetrahydro-2H-pyran-4-yl)methyl)-2-(3-cyano-4-isobutoxyphenyl)-4-methylthiazole-5-carboxamide hydrochloride]",viability at 0.5 µM,"[1]; 500 nM, 20 μM beta amyloid, 72 hours, untreated control = 100%",52.2%
same,viability at 5 µM,"N2a cells [2]; 5 μM, 20 μM beta amyloid, 72 hours, untreated control = 100%",68.9%
same,Inhibition of cytotoxicity caused by beta amyloid treatment (in words),N2a cells [2],significantly inhibit the cytotoxicity caused by beta amyloid treatment
same,Cyto-ID fluorescence value (relative intensity),[3],1.813
same,Autophagic vesicle formation compared to rapamycin (in words),[3],significantly increase autophagic vesicle formation
same,Recovery of mitochondrial damage by rotenone treatment (in words),N2a cells [4],recovers the mitochondrial damage by rotenone treatment in a statistically significant level
same,Mitochondrial respiration (%): ATP production,N2a cells [4]; [7],31.65%
same,Mitochondrial respiration (%): Basal,N2a cells [4]; [7],51.69%
same,Mitochondrial respiration (%): Maximal,N2a cells [4]; [7],62.28%
same,Mitochondrial respiration (%): Spare,N2a cells [4]; [7],16.33%
"CCN(CC)CCOc1ccc(-c2nc(C)c(C(=O)NCC3(N(C)C)CCOCC3)s2)cc1C#N.Cl.Cl [Example 29, N-((4-(dimethylamino)tetrahydro-2H-pyran-4-yl)methyl)-2-(4-(2-diethylamino)ethoxy-3-cyanophenyl)-4-methylthiazole-5-carboxamide hydrochloride]",viability at 0.5 µM,[1]; 72 h,53.3%
same,ALT values (average value),[5]; [8],219.29 U/L
same,AST values (average value),[5]; [8],376.67 U/L
same,ALT values (average value),[5]; [9],99.31 U/L
same,AST values (average value),[5]; [9],164.60 U/L
same,ALT values (average value),[5]; [10],66.57 U/L
same,AST values (average value),[5]; [10],143.87 U/L
same,ALT values (average value),[5]; [11],53.03 U/L
same,AST values (average value),[5]; [11],127.65 U/L
same,ALT values (average value),[5]; [12],52.97 U/L
same,AST values (average value),[5]; [12],123.33 U/L
same,Numbers of the autophagy per cell: Autolysosome,"N2a cells [6]; 5 μM, 24 hours",14.9
same,Numbers of the autophagy per cell: Autophagic vesicles,"N2a cells [6]; 5 μM, 24 hours",22.3
same,Numbers of the autophagy per cell: Autophagosome,"N2a cells [6]; 5 μM, 24 hours",6.9
same,Autophagic vesicle and autolysosome formation compared to rapamycin (in words),N2a cells [6]; at ½ concentration of rapamycin (5 μM vs 10 μM),"significantly increase autophagic vesicle formation, especially autolysosome formation"
same,viability at 5 µM,N2a cells [2]; 72 h,68.5%
same,Inhibition of cytotoxicity caused by beta amyloid treatment (in words),N2a cells [2],significantly inhibit the cytotoxicity caused by beta amyloid treatment
same,Cyto-ID fluorescence value (relative intensity),[3],2.171
same,Autophagic vesicle formation compared to rapamycin (in words),[3],significantly increase autophagic vesicle formation
